# Results taken from patent US5279835A, “Binder-free orally administrable tablet containing 3-oxygermylpropionic acid” (Sanwa Kagaku Kenkyusho Co. Ltd., priority 1991, dated 1994).
# Key:
# [1] = system: delayed type hypersensitivity reactions (DTH reactions) using sheep red blood cells (SRBCs) as antigens; assay: Delayed type hypersensitivity (DTH) reaction, pododerm swelling, in Sarcoma-180 bearing ICR mice sensitized with SRBCs; format: in vivo; conditions: n = 10; for Pododerm Swelling, Average: Table 1-2 (MGWC 55.5, SMG 115.5)
# Procedure: The effects of 3-OGP, salts and hydroxypropylcellulose incorporated in compositions were investigated by delayed type hypersensitivity reactions (DTH reactions) using sheep red blood cells (SRBCs) as antigens.
# Sarcoma-180 cells (10^6) were intraperitoneally transplanted in test animals--ICR mice (seven-week old), 10 for each group. Then, SRBCs (10^6) were injected into each animal through the vein of the tail for sensitization.
# Four days later, SRBCs (2×10^8) were injected into the pododerm of the right hind leg to induce the DTH reaction and, 24 hours later, the thickness of the pododerm was measured. Note that the test drugs were administrated to the animals in the form of a feed mix 4 days before sensitization.
# [2] = system: spontaneous nephritis in MRL/1 mice; assay: Prevention of spontaneous nephritis in MRL/1 mice (urinary protein, blood urea nitrogen, histopathology); format: in vivo
# Procedure: The effect of 3-OGP on preventing spontaneous nephritis in MRL/1 mice was investigated.
# 2-B) The preparation of Ex. 6 was orally administrated to test animals--MRL/1 mice of six-week old, 15 for each group--at daily doses of 0.1 mg/kg, 1.0 mg/kg and 10.0 mg/kg calculated as 3-OGP twice a week over 12 weeks. It is noted that this preparation was administrated to each animal in the form of a feed mix. […] In addition, the urea nitrogen content of blood on the day following the final administration were measured to make sero-biochemical as well as histopathological estimations of the action of the 3-OGP compositions on nephritis.
# It is noted that the urinary protein was determined with Protein Pretest (made by Wako Junyaku) and the urea nitrogen content of blood was estimated with Urea Nitrogen Test B: Urease/Indophenol Method (made by Wako Junyaku).
substance,measurement,setting,value
3-oxygermylpropionic acid [Example 3-OGP],"Pododerm Swelling, Average Standard Deviation","[1]; Table 1-1, first series (MGWC 47.1, SMG 115.4), 0.1 mg/kg in feed mix",55.1 3.3 × 0.01 mm
same,"Pododerm Swelling, Average Standard Deviation","[1]; Table 1-1, first series (MGWC 47.1, SMG 115.4), 1 mg/kg in feed mix",73.8 5.7 × 0.01 mm
same,"Pododerm Swelling, Average Standard Deviation","[1]; Table 1-1, first series (MGWC 47.1, SMG 115.4), 10 mg/kg in feed mix",70.2 5.1 × 0.01 mm
same,"Pododerm Swelling, Average Standard Deviation","[1]; Table 1-1, second series (MGWC 48.9, SMG 117.4), 0.1 mg/kg in feed mix",64.3 6.4 × 0.01 mm
same,"Pododerm Swelling, Average Standard Deviation","[1]; Table 1-1, second series (MGWC 48.9, SMG 117.4), 1 mg/kg in feed mix",72.1 5.5 × 0.01 mm
same,"Pododerm Swelling, Average Standard Deviation","[1]; Table 1-1, second series (MGWC 48.9, SMG 117.4), 10 mg/kg in feed mix",66.3 3.1 × 0.01 mm
same,"Pododerm Swelling, Average",[1]; 0.1 mg/kg in feed mix,63.5 × 0.01 mm
same,"Pododerm Swelling, Average",[1]; 1 mg/kg in feed mix,77.0 × 0.01 mm
same,"Pododerm Swelling, Average",[1]; 10 mg/kg in feed mix,73.2 × 0.01 mm
same,increase in urea nitrogen content of blood,[2]; 10 mg/kg of 3-OGP,significantly inhibited
same,increase in urinary protein,"[2]; 10 mg/kg of 3-OGP, after 12 weeks",significantly inhibited even after 12 weeks
same,glomeruli with lesion severer than mediocre membranous glomerulonephritis,"[2]; group treated with 3-OGP, control 60%",20-36%
same,urinary protein increase,"[2]; groups treated with 3-OGP, control increased after 9 to 10 weeks",any urinary protein increase was not found
same,Urinary Protein in %,"[2]; preparation of Ex. 6, 0.1 mg/kg as 3-OGP, after 10 weeks, positive = 100 mg/dl or more (control 52.3)",28.7%
same,Urinary Protein in %,"[2]; preparation of Ex. 6, 0.1 mg/kg as 3-OGP, after 11 weeks (control 66.6)",47.1%
same,Urinary Protein in %,"[2]; preparation of Ex. 6, 0.1 mg/kg as 3-OGP, after 12 weeks (control 91.3)",65.6%
same,Urinary Protein in %,"[2]; preparation of Ex. 6, 1 mg/kg as 3-OGP, after 10 weeks (control 52.3)",28.1%
same,Urinary Protein in %,"[2]; preparation of Ex. 6, 1 mg/kg as 3-OGP, after 11 weeks (control 66.6)",23.8%
same,Urinary Protein in %,"[2]; preparation of Ex. 6, 1 mg/kg as 3-OGP, after 12 weeks (control 91.3)",51.0%
same,Urinary Protein in %,"[2]; preparation of Ex. 6, 10 mg/kg as 3-OGP, after 10 weeks (control 52.3)",15.8%
same,Urinary Protein in %,"[2]; preparation of Ex. 6, 10 mg/kg as 3-OGP, after 11 weeks (control 66.6)",27.5%
same,Urinary Protein in %,"[2]; preparation of Ex. 6, 10 mg/kg as 3-OGP, after 12 weeks (control 91.3)",53.3%
